Source: patent US20090099029A1, “Methods and substrates for conducting assays” (Invitrogen Corporation, priority 2005, published 2009)
Like-named read-outs stand apart in the source and are kept apart here.

Columns and labels:
Experiment in all cases: Further analysis of a plurality of inhibitors and a plurality of kinases (Table 5 inhibition results)
Format in all cases: biochemical
Design in all cases: scale not given here
kinases of Table 5 [1] = molecular target: kinases of Table 5 (Homo sapiens, UniProt Q13627); settings: kinase DYRK1A (Part I, plate G6, Domain 1)
Source text: (§1) The wash solution is then discarded.

kinases of Table 5 [2] = molecular target: T1, kinases of Table 5 (Homo sapiens, UniProt P54762); settings: for Inhibition Results (Level): kinase EPHB1 (Part II, plate B8, Domain 1)
T1 sequence (P54762 18-984): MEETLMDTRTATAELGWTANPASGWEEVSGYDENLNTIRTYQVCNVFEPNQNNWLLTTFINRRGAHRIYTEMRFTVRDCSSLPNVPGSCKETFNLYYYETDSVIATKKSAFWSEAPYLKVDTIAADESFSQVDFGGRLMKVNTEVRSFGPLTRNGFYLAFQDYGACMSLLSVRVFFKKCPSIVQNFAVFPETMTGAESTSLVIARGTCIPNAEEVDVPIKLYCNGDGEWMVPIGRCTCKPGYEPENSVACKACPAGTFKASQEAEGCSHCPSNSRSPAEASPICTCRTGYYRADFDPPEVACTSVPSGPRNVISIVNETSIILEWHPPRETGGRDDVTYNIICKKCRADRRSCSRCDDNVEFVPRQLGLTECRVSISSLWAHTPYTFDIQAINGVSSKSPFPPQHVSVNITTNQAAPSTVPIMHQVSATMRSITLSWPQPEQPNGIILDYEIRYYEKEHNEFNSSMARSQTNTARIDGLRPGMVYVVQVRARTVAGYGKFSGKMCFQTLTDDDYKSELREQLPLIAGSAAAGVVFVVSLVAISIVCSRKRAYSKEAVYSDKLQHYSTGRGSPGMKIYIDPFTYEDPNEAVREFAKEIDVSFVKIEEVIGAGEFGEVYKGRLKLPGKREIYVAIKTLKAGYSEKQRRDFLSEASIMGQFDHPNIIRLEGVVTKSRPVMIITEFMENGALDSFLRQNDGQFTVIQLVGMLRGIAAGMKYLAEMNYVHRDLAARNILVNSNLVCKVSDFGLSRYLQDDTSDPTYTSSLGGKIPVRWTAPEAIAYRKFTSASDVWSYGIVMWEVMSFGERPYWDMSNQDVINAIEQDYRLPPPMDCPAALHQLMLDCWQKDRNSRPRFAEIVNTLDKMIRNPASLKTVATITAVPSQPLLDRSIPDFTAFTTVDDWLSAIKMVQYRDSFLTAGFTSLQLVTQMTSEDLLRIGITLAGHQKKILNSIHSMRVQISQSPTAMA
Source text: as §1

kinases of Table 5 [3] = molecular target: T2, kinases of Table 5 (Homo sapiens, UniProt P41743); settings: kinase PRKCI (Part I, plate A2, Domain 0)
T2 sequence (P41743 1-596): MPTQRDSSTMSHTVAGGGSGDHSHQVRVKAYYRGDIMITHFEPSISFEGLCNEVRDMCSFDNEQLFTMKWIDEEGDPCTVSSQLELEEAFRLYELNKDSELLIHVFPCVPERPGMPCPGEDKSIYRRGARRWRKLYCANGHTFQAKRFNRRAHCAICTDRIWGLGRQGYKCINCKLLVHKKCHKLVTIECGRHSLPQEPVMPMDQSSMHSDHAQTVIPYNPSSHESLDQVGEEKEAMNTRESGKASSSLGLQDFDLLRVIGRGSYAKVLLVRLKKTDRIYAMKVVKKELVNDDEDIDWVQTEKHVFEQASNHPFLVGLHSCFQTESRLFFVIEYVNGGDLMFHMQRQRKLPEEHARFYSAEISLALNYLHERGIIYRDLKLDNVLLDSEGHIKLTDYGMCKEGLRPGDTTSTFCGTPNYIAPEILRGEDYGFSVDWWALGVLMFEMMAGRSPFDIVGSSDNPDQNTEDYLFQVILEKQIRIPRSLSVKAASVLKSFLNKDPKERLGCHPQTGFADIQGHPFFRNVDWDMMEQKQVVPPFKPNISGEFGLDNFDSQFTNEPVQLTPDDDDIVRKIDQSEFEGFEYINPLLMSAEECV
Source text: as §1

kinases of Table 5 [4] = molecular target: kinases of Table 5 (Homo sapiens, UniProt P00519); settings: for Inhibition level: kinase ABL1; for Inhibition Results (Level): kinase ABL1 (Part II, plate B6, Domain 1)
Source text: as §1

kinases of Table 5 [5] = molecular target: kinases of Table 5 (Homo sapiens, UniProt P06241)
Source text: as §1

kinases of Table 5 [6] = molecular target: kinases of Table 5 (Homo sapiens, UniProt P37173); settings: kinase TGFBR2 (Part I, plate C7, Domain 1)
Source text: as §1

kinases of Table 5 [7] = molecular target: kinases of Table 5 (Homo sapiens, UniProt Q00536); settings: kinase PCTK1 (Part I, plate A3, Domain 0); inhibitor 100 uM
Source text: as §1

kinases of Table 5 [8] = molecular target: kinases of Table 5 (Homo sapiens, UniProt O75914); settings: for Inhibition level: kinase PAK3; for Inhibition Results (Level): kinase PAK3 (Part II, plate D4, Domain 1)
Source text: as §1

kinases of Table 5 [9] = molecular target: T3, kinases of Table 5 (Homo sapiens, UniProt Q8IV63); settings: kinase LOC51231 (Part I, plate C12, Domain 1)
T3 sequence (Q8IV63 1-474): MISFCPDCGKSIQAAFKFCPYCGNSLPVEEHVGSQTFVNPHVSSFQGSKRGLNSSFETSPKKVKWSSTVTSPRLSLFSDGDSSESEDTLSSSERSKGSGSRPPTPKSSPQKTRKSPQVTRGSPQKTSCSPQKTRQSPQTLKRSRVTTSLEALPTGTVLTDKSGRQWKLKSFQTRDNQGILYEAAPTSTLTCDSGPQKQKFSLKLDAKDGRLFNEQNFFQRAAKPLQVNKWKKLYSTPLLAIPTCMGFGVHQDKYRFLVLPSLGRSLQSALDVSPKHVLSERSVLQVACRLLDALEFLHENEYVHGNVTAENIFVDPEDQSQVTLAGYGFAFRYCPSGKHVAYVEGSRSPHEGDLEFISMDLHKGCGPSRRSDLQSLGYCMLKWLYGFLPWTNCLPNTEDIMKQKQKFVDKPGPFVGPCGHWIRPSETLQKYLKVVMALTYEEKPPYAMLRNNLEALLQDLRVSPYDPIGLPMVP
Source text: as §1

[10] = kinase FYN (Part I, plate A4, Domain 0), inhibitor 100 uM
[11] = kinase EPHB1, concentration not given

Sequence of kinases of Table 5 (Homo sapiens, UniProt P00519) (P00519 whole entry): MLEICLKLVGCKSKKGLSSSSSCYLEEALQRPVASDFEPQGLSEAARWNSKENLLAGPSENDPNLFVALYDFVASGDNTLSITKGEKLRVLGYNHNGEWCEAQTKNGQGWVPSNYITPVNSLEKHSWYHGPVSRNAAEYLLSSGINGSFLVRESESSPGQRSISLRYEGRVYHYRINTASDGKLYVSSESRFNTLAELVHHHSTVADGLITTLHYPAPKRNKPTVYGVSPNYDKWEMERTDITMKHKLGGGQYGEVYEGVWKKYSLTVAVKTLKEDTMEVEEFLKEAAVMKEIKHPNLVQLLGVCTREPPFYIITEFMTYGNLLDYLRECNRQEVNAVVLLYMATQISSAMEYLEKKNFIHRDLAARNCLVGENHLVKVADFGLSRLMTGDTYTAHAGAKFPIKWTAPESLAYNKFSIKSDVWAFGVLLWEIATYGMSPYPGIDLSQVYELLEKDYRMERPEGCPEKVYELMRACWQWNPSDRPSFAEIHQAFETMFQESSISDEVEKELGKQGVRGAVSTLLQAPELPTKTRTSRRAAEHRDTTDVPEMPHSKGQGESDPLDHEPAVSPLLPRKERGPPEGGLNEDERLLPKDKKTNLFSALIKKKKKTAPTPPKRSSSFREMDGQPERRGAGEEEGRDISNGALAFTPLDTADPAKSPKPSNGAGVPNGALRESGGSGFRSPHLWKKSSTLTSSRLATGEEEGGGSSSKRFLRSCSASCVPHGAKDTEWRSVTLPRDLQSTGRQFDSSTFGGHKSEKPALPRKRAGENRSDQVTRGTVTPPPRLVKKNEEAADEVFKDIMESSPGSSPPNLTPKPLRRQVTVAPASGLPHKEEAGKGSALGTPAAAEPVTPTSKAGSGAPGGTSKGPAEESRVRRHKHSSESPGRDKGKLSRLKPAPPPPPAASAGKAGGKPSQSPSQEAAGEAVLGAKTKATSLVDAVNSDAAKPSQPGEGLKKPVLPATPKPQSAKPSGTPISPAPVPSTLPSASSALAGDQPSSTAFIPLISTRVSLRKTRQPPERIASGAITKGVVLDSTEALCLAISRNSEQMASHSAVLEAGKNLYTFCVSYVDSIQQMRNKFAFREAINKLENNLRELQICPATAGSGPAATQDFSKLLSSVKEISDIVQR
Sequence of kinases of Table 5 (Homo sapiens, UniProt P06241) (P06241 whole entry): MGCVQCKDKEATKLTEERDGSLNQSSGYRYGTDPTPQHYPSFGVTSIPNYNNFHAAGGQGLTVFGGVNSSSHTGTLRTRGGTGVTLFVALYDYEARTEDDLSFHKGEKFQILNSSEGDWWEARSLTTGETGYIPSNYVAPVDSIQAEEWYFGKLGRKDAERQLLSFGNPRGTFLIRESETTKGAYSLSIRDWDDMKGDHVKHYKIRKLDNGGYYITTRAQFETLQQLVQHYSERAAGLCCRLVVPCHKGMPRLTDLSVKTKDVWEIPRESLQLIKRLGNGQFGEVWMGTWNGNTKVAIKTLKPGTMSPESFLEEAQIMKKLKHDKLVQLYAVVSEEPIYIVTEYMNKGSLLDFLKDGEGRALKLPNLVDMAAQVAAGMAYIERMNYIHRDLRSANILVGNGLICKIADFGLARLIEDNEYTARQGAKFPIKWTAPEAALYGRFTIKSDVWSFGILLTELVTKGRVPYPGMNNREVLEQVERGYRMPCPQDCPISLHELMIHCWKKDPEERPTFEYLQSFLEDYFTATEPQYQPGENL
Sequence of kinases of Table 5 (Homo sapiens, UniProt Q00536) (Q00536 whole entry): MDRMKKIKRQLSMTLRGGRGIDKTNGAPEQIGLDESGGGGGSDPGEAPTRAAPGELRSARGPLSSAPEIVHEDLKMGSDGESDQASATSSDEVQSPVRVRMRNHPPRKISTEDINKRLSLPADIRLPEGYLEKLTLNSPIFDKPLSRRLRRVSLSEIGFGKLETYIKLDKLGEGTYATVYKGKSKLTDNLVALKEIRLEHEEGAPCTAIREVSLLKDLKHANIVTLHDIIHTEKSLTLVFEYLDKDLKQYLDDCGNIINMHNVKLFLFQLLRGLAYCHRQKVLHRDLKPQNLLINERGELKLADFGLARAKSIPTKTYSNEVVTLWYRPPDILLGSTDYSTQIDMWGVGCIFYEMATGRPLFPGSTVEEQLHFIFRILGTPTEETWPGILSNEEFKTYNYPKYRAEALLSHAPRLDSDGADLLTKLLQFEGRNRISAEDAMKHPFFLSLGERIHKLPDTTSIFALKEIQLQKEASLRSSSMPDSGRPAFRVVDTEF
Sequence of kinases of Table 5 (Homo sapiens, UniProt P37173) (P37173 23-567): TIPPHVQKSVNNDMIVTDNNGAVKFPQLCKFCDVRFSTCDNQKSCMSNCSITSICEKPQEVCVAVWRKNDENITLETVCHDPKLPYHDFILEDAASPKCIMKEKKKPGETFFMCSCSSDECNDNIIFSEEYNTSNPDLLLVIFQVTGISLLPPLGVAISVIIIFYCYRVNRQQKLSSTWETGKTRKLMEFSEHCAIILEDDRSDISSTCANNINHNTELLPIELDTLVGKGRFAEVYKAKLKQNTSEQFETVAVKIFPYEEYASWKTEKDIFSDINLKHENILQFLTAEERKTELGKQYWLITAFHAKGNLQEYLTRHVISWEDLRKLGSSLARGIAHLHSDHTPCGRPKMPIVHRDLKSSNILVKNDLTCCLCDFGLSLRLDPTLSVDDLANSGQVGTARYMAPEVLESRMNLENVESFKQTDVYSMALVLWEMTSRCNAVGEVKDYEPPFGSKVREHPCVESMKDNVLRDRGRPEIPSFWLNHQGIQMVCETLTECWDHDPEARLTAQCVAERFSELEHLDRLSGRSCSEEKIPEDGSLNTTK
Sequence of kinases of Table 5 (Homo sapiens, UniProt O75914) (O75914 whole entry): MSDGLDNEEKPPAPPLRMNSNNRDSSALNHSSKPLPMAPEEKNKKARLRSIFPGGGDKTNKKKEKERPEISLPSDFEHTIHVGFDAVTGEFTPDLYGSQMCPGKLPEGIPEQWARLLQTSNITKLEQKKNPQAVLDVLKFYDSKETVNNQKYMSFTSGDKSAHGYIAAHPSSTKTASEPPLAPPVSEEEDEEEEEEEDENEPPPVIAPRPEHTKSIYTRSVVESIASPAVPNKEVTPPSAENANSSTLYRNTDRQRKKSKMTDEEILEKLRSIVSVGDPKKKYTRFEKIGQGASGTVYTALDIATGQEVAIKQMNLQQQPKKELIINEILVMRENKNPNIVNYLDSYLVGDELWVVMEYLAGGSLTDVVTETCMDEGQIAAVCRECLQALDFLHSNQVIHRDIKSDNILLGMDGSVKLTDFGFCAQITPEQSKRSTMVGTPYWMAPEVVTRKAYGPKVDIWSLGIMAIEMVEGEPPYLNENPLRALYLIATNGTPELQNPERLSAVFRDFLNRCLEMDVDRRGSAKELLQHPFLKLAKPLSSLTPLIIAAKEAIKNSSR

SMILES	Inhibition Results (Level) (kinases of Table 5 [1]; inhibitor 100 uM)	Inhibition level (kinases of Table 5 [2]; kinase EPHB1, inhibitor 100 uM)	Inhibition Results (Level) (kinases of Table 5 [3]; inhibitor 100 uM)	Inhibition level (kinases of Table 5 [4]; inhibitor 100 uM)	Inhibition Results (Level) (kinases of Table 5 [5]; [10])	Inhibition Results (Level) (kinases of Table 5 [6]; inhibitor 100 uM)	Inhibition Results (Level) (kinases of Table 5 [7])	Inhibition level (kinases of Table 5 [8]; inhibitor 100 uM)	Inhibition Results (Level) (kinases of Table 5 [9]; inhibitor 100 uM)	Inhibition Results (Level) (kinases of Table 5 [2]; inhibitor 100 uM)	Inhibition Results (Level) (kinases of Table 5 [8]; inhibitor 100 uM)	further results
N#C/C(=C/c1ccc(O)c(O)c1)C(=O)NCc1ccccc1 [AG 490]	2	0	2	0	2	2	0	1	0			
COc1cc2ncnc(Nc3cccc(Cl)c3)c2cc1OC [AG 1478]	0	2	0	1	2	2	0	2	0			
O=c1c(-c2ccc(O)cc2)coc2cc(O)cc(O)c12 [Genistein]	2	1	2	0	2	2	1	2	2			Inhibition Results (Level) (kinases of Table 5 [1]; inhibitor <3.7 mM): 1; Inhibition level (kinases of Table 5 [2]; [11]): 0; Inhibition Results (Level) (kinases of Table 5 [3]; inhibitor <3.7 mM): 0; Inhibition level (kinases of Table 5 [4]; concentration not given): 0; Inhibition Results (Level) (kinases of Table 5 [5]; kinase FYN (Part I, plate A4, Domain 0), inhibitor <3.7 mM): 1; Inhibition Results (Level) (kinases of Table 5 [6]; inhibitor <3.7 mM): 1; Inhibition level (kinases of Table 5 [8]; concentration not given): 0; Inhibition Results (Level) (kinases of Table 5 [9]; inhibitor <3.7 mM): 0
O=S(=O)(NCCNC/C=C/c1ccc(Br)cc1)c1cccc2cnccc12 [H-89]	2		2		2	2	2		2	1	2	Inhibition Results (Level) (kinases of Table 5 [4]; inhibitor 100 uM): 0
CC(C)(C)n1nc(-c2ccc(Cl)cc2)c2c(N)ncnc21 [PP2]	1	2	1			2	1	2	0			
O=c1c(O)c(-c2ccc(O)c(O)c2)oc2cc(O)cc(O)c12 [Quercetin]			0			0	0		0	0	2	
Cn1cc(C2=C(c3cn(CCCSC(=N)N)c4ccccc34)C(=O)NC2=O)c2ccccc21 [Ro-31-8220]	2	0	0	2	2	2	0	2	2			Inhibition Results (Level) (kinases of Table 5 [1]; inhibitor 90 uM): 0; Inhibition level (kinases of Table 5 [2]; [11]): 2; Inhibition Results (Level) (kinases of Table 5 [3]; inhibitor 90 uM): 2; Inhibition level (kinases of Table 5 [4]; concentration not given): 0; Inhibition Results (Level) (kinases of Table 5 [5]; kinase FYN (Part I, plate A4, Domain 0), inhibitor 90 uM): 0; Inhibition Results (Level) (kinases of Table 5 [6]; inhibitor 90 uM): 2; Inhibition level (kinases of Table 5 [8]; concentration not given): 2; Inhibition Results (Level) (kinases of Table 5 [9]; inhibitor 90 uM): 0
CC(=O)c1c(O)c(C)c(O)c(Cc2c(O)c3c(c(C(=O)/C=C/c4ccccc4)c2O)OC(C)(C)C=C3)c1O [Rottlerin (Mallotoxin)]	0		2		2	2	0		0	1	0	Inhibition Results (Level) (kinases of Table 5 [4]; inhibitor 100 uM): 0
CN[C@@H]1C[C@H]2O[C@@](C)([C@@H]1OC)n1c3ccccc3c3c4c(c5c6ccccc6n2c5c31)C(=O)NC4 [Staurosporine]												Inhibition level (kinases of Table 5 [2]): 2; Inhibition Results (Level) (kinases of Table 5 [5]): 2; Inhibition Results (Level) (kinases of Table 5 [6]; inhibitor 21.5 uM): 2; Inhibition Results (Level) (kinases of Table 5 [9]; inhibitor 21.5 uM): 0
